# Experiments:
# MAP4K3 = MAP4K3 (Homo sapiens, UniProt Q8IVH8); experiment: KiNativ, OCI cells live cell; format: cell-based; settings: labeling site Lys2, peptide DIKGANILLTDNGHVK
# IKKe = IKKe (Homo sapiens, UniProt Q14164); experiment: KiNativ, OCI cells live cell; format: cell-based; settings: 2 h, labeling site Lys1, peptide […]
# CaMK4 = CaMK4 (Homo sapiens, UniProt Q16566); experiment: KiNativ, OCI cells live cell; format: cell-based; settings: 2 h, labeling site Lys2, peptide […]
# MST1 = MST1 (Homo sapiens, UniProt Q13043); experiment: KiNativ, OCI cells live cell; format: cell-based; settings: labeling site Lys1, peptide ETGQIVAIKQVPVESDLQEIIK
# Sequence of MST1 (Q13043 whole entry): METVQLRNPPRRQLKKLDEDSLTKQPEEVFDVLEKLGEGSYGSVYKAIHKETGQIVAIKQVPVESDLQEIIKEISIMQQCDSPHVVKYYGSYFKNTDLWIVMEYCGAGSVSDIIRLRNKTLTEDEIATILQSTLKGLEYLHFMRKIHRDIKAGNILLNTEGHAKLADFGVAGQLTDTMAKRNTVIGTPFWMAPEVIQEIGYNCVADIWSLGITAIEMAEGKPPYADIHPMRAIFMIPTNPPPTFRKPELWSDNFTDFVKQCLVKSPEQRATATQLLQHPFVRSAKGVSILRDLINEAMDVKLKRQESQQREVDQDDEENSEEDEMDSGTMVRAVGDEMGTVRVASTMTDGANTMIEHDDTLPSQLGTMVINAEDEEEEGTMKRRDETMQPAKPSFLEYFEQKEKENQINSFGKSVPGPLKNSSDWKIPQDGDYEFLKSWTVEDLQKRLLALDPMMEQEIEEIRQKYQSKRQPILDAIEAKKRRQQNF
# CDK9 = CDK9 (Homo sapiens, UniProt P50750); experiment: KiNativ, OCI cells live cell; format: cell-based; settings: 2 h
# Sequence of CDK9 (P50750 whole entry): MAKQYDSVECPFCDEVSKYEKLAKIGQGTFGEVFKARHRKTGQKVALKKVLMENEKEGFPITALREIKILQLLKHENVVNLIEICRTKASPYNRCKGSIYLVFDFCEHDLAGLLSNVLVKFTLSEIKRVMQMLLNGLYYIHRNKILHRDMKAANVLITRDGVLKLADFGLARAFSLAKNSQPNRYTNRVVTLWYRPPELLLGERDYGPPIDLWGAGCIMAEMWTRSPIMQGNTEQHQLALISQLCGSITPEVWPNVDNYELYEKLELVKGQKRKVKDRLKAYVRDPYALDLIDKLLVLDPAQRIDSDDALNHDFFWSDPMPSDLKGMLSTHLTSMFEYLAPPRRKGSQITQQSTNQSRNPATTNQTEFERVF
# Sequence of CDK9 (O60563 whole entry partner): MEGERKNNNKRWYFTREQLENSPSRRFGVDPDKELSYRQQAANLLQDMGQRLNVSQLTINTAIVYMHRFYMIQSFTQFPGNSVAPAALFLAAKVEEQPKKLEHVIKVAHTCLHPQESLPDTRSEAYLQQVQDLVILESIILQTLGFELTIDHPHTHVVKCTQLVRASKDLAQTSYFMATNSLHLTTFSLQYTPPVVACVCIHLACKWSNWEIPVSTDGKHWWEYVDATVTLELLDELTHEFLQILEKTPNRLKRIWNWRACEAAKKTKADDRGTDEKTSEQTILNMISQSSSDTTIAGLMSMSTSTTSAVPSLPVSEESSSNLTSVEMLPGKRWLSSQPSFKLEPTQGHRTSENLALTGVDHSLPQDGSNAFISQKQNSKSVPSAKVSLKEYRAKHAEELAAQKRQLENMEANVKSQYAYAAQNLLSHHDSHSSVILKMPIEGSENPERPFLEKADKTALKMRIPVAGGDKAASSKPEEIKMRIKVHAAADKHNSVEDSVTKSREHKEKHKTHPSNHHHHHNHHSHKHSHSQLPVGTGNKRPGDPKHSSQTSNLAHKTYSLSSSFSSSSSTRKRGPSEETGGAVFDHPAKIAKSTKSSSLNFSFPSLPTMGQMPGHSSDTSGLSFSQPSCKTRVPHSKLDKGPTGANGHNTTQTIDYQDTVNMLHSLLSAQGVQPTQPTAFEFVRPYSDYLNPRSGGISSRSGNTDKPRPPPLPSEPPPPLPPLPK
# MARK2 = MARK2 (Homo sapiens, UniProt Q7KZI7); experiment: KiNativ, OCI cells live cell; format: cell-based; settings: 2 h, labeling site Lys1, peptide […]
# DNAPK = DNAPK (Homo sapiens, UniProt P78527); experiment: KiNativ, OCI cells live cell; format: cell-based; settings: 2 h, labeling site ATP
# CDK7 = CDK7 (Homo sapiens, UniProt P50613); experiment: KdELECT binding assay; set-up: purchased Eurofins DiscoverX
# Sequence of CDK7 (P50613 whole entry): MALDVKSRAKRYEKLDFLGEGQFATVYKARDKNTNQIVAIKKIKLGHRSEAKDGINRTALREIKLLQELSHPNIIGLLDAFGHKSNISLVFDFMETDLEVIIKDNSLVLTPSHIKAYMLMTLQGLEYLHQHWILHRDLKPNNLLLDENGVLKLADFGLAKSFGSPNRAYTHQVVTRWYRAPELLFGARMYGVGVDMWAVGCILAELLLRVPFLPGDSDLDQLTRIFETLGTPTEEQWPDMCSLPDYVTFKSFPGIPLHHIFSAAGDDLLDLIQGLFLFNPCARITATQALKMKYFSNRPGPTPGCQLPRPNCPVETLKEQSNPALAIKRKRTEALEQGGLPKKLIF
# SBK = SBK (Homo sapiens, UniProt Q52WX2); experiment: KiNativ, OCI cells live cell; format: cell-based; settings: 2 h, labeling site Lys2, peptide […]
# Sequence of SBK (Q52WX2 whole entry): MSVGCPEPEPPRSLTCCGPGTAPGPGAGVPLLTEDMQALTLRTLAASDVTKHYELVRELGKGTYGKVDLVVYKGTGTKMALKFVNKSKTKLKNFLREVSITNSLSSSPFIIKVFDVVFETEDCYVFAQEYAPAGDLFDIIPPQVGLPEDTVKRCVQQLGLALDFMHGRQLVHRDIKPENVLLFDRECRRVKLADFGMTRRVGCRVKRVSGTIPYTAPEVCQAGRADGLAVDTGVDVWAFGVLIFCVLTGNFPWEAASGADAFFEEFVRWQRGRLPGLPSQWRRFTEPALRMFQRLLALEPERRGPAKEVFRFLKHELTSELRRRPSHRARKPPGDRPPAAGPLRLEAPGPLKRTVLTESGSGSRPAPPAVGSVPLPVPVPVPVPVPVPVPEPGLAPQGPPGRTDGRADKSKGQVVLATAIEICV
# [1] = test system: ZC1/HGK, ZC2/TNIK, ZC3/MINK; experiment: KiNativ, MOLM13 live cells; format: cell-based, human; settings: 100 nM, 2 hours; Lys2
# Procedure: (§1) Samples were analyzed by KiNativ in situ kinase profiling by ActivX Biosciences.
# JNK1, JNK2, JNK3 = experiment: KiNativ, MOLM13 live cells; format: cell-based, human; settings: 100 nM, 2 hours; Lys2
# Procedure: as §1
# AMPKa1, AMPKa2 = experiment: KiNativ, MOLM13 live cells; format: cell-based, human; settings: 100 nM, 2 hours
# Procedure: as §1
# NEK6, NEK7 = experiment: KiNativ, MOLM13 live cells; format: cell-based, human; settings: 100 nM, 2 hours; Lys2
# Procedure: as §1
# ABL, ARG = experiment: KiNativ, MOLM13 live cells; format: cell-based, human; settings: 100 nM, 2 hours
# Procedure: as §1
# Wnk1, Wnk2, Wnk4 = experiment: KiNativ, MOLM13 live cells; format: cell-based, human; settings: 100 nM, 2 hours; Activation Loop
# Procedure: as §1
# AurA, AurB, AurC = experiment: KiNativ, MOLM13 live cells; format: cell-based, human; settings: 100 nM, 2 hours; ATP Loop
# Procedure: as §1
# PCTAIRE1, PCTAIRE3 = experiment: KiNativ, MOLM13 live cells; format: cell-based, human; settings: 100 nM, 2 hours; Lys2
# Procedure: as §1
# Wnk1, Wnk2, Wnk3 = experiment: KiNativ, MOLM13 live cells; format: cell-based, human; settings: 100 nM, 2 hours; Lys2
# Procedure: as §1
# IKKe, TBK1 = experiment: KiNativ, MOLM13 live cells; format: cell-based, human; settings: 100 nM, 2 hours; Lys2
# Procedure: as §1
# CK1g1, CK1g2, CK1g3 = experiment: KiNativ, MOLM13 live cells; format: cell-based, human; settings: 100 nM, 2 hours; ATP Loop
# Procedure: as §1
# MST4, YSK1 = experiment: KiNativ, MOLM13 live cells; format: cell-based, human; settings: 100 nM, 2 hours; Lys2
# Procedure: as §1
# p38d, p38g = experiment: KiNativ, MOLM13 live cells; format: cell-based, human; settings: 100 nM, 2 hours; Lys2
# Procedure: as §1
# [2] = test system: CaMK2a, CaMK2b, CaMK2d, CaMK2g; experiment: KiNativ, MOLM13 live cells; format: cell-based, human; settings: 100 nM, 2 hours; Lys2
# Procedure: as §1
# MARK2, MARK3 = experiment: KiNativ, MOLM13 live cells; format: cell-based, human; settings: 100 nM, 2 hours; Lys2
# Procedure: as §1
# SRPK1, SRPK2 = experiment: KiNativ, MOLM13 live cells; format: cell-based, human; settings: 100 nM, 2 hours; Lys1
# Procedure: as §1
# AKT2, AKT3 = experiment: KiNativ, MOLM13 live cells; format: cell-based, human; settings: 100 nM, 2 hours; ATP Loop
# Procedure: as §1
# MAPKAPK2, MAPKAPK3 = experiment: KiNativ, MOLM13 live cells; format: cell-based, human; settings: 100 nM, 2 hours; Lys2
# Procedure: as §1
# PCTAIRE2, PCTAIRE3 = experiment: KiNativ, MOLM13 live cells; format: cell-based, human; settings: 100 nM, 2 hours; Lys1
# Procedure: as §1
# NDR1, NDR2 = experiment: KiNativ, MOLM13 live cells; format: cell-based, human; settings: 100 nM, 2 hours; Activation Loop
# Procedure: as §1
# MAP3K15, MAP3K5, MAP3K6 = experiment: KiNativ, MOLM13 live cells; format: cell-based, human; settings: 100 nM, 2 hours; Lys1
# Procedure: as §1
# CDK11, CDK8 = experiment: KiNativ, MOLM13 live cells; format: cell-based, human; settings: 100 nM, 2 hours; Lys2
# Procedure: as §1
# MST1, MST2 = experiment: KiNativ, MOLM13 live cells; format: cell-based, human; settings: 100 nM, 2 hours; Lys2
# Procedure: as §1
# MAP3K2, MAP3K3 = experiment: KiNativ, MOLM13 live cells; format: cell-based, human; settings: 100 nM, 2 hours; Lys2
# Procedure: as §1
# [3] = test system: MSK1 domain1, MSK2 domain1; experiment: KiNativ, MOLM13 live cells; format: cell-based, human; settings: 100 nM, 2 hours; ATP Loop
# Procedure: as §1
# KSR1, KSR2 = experiment: KiNativ, MOLM13 live cells; format: cell-based, human; settings: 100 nM, 2 hours; Activation Loop
# Procedure: as §1
# PI4KA, PI4KAP2 = experiment: KiNativ, MOLM13 live cells; format: cell-based, human; settings: 100 nM, 2 hours; ATP
# Procedure: as §1
# Wnk1, Wnk2 = experiment: KiNativ, MOLM13 live cells; format: cell-based, human; settings: 100 nM, 2 hours; ATP Loop
# Procedure: as §1
# TAO1, TAO3 = experiment: KiNativ, MOLM13 live cells; format: cell-based, human; settings: 100 nM, 2 hours; Lys2
# Procedure: as §1
# [4] = test system: RSK1 domain1, RSK2 domain1, RSK3 domain1; experiment: KiNativ, MOLM13 live cells; format: cell-based, human; settings: 100 nM, 2 hours; Lys2
# Procedure: as §1
# MAP2K1, MAP2K2 = experiment: KiNativ, MOLM13 live cells; format: cell-based, human; settings: 100 nM, 2 hours; Lys2
# Procedure: as §1
# SGK3 = SGK3 (Homo sapiens, UniProt Q96BR1); experiment: KiNativ, OCI cells live cell; format: cell-based; settings: 2 h, labeling site Lys1, peptide […]
# Sequence of SGK3 (Q96BR1 whole entry): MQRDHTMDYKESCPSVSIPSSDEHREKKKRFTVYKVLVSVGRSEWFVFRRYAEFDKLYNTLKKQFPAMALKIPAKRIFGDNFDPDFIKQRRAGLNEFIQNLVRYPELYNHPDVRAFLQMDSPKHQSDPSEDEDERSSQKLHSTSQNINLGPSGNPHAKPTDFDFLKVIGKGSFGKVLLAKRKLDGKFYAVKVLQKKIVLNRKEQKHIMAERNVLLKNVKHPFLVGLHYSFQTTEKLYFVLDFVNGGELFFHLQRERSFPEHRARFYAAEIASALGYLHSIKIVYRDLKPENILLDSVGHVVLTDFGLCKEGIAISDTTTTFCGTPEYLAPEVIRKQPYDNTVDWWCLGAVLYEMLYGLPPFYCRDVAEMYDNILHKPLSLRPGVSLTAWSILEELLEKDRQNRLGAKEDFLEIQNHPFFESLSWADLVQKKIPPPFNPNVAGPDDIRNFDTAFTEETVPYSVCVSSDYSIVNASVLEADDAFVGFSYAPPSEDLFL
# PFTAIRE2 = PFTAIRE2 (Homo sapiens, UniProt Q96Q40); experiment: KiNativ, OCI cells live cell; format: cell-based; settings: 2 h, labeling site Lys2, peptide […]
# Sequence of MAP4K3 (Q8IVH8 whole entry): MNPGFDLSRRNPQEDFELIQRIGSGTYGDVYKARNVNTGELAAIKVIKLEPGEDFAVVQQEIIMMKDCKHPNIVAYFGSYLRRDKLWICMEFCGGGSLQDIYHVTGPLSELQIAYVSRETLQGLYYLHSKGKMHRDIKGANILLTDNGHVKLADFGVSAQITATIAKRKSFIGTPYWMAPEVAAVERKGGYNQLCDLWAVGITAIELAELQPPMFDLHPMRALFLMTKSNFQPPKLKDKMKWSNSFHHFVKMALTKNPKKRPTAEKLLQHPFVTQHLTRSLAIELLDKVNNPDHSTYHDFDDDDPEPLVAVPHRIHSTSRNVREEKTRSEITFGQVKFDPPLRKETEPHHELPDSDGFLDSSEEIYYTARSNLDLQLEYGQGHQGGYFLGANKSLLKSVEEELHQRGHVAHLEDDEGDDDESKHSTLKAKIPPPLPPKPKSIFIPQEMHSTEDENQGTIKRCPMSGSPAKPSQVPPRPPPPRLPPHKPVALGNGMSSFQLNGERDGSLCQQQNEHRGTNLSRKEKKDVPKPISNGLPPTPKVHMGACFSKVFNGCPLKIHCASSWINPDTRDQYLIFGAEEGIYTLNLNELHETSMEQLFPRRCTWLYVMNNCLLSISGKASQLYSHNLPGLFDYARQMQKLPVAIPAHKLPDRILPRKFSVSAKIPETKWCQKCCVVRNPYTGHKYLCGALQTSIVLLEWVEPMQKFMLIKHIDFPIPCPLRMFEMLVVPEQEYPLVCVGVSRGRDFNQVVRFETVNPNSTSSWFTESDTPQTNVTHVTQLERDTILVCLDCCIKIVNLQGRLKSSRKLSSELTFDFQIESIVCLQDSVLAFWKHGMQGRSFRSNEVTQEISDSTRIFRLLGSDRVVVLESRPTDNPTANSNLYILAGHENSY
# Sequence of CaMK4 (Q16566 whole entry): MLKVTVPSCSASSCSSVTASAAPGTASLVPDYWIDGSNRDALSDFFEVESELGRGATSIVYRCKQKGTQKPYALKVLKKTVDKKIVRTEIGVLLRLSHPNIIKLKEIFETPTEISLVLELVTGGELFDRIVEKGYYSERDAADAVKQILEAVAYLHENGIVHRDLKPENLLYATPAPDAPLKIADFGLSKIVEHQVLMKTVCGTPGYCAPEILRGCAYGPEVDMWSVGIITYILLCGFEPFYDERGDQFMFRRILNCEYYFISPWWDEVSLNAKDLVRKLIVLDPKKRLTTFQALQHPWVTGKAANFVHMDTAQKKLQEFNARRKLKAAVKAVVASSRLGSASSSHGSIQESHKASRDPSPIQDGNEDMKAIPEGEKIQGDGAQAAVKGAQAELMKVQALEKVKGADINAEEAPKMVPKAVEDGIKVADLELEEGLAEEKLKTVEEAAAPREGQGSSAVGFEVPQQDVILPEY
# Sequence of IKKe (Q14164 whole entry): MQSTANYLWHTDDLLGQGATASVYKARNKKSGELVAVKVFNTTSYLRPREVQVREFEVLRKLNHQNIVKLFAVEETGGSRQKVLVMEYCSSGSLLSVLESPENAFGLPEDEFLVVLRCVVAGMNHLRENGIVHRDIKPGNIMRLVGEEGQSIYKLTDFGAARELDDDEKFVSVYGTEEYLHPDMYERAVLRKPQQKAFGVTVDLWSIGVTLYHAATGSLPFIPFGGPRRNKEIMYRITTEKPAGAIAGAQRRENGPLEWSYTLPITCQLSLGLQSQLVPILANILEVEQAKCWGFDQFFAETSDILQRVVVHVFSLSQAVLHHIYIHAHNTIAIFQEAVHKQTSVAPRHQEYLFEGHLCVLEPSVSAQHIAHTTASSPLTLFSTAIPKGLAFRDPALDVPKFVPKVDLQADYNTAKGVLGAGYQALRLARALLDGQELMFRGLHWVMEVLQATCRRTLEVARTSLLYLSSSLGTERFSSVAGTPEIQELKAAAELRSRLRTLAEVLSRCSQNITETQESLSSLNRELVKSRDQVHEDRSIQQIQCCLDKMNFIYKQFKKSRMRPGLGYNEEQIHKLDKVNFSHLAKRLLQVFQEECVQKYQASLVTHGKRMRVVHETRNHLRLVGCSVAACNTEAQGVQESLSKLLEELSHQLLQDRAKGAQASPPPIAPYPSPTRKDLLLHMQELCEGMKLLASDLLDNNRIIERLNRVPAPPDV
smiles,measurement,setting,value
CN1CCN(Cc2ccc(Nc3ncc(Cl)c(Nc4ccccc4S(=O)(=O)N(C)C)n3)cc2)CC1 [TP-0903],Inhibition,MAP4K3,64.9%
same,inhibition at 0.1 µM,IKKe,30.5%
same,inhibition at 0.1 µM,CaMK4,-2.6%
same,Inhibition,MST1,33.6%
same,inhibition at 0.1 µM,"CDK9; labeling site ATP Loop, peptide IGQGTFGEVFKAR",-30.7%
same,inhibition at 0.1 µM,"CDK9; labeling site Lys2, peptide DMKAANVLITR",32.9%
same,inhibition at 0.1 µM,MARK2,37.7%
same,inhibition at 0.1 µM,DNAPK; peptide EHPFLVKGGEDLR,2.8%
same,inhibition at 0.1 µM,DNAPK; peptide KGGSWIQEINVAEK,8.4%
same,Kd,CDK7,< 5 nM
same,inhibition at 0.1 µM,SBK,-0.9%
same,Inhibition vs DMSO,[1],50.7%
same,Inhibition vs DMSO,"JNK1, JNK2, JNK3",18.9%
same,Inhibition vs DMSO,"AMPKa1, AMPKa2; Lys1",19.6%
same,Inhibition vs DMSO,"AMPKa1, AMPKa2; Lys2",33.8%
same,Inhibition vs DMSO,"NEK6, NEK7",7.8%
same,Inhibition vs DMSO,"ABL, ARG; Activation Loop",5.0%
same,Inhibition vs DMSO,"ABL, ARG; Lys1",24.5%
same,Inhibition vs DMSO,"Wnk1, Wnk2, Wnk4",-35.0%
same,Inhibition vs DMSO,"AurA, AurB, AurC",68.0%
same,Inhibition vs DMSO,"PCTAIRE1, PCTAIRE3",81.4%
same,Inhibition vs DMSO,"Wnk1, Wnk2, Wnk3",-31.8%
same,Inhibition vs DMSO,"IKKe, TBK1",74.5%
same,Inhibition vs DMSO,"CK1g1, CK1g2, CK1g3",-28.7%
same,Inhibition vs DMSO,"MST4, YSK1",39.6%
same,Inhibition vs DMSO,"p38d, p38g",-8.7%
same,Inhibition vs DMSO,[2],-2.0%
same,Inhibition vs DMSO,"MARK2, MARK3",37.1%
same,Inhibition vs DMSO,"SRPK1, SRPK2",21.8%
same,Inhibition vs DMSO,"AKT2, AKT3",-63.3%
same,Inhibition vs DMSO,"MAPKAPK2, MAPKAPK3",-22.0%
same,Inhibition vs DMSO,"PCTAIRE2, PCTAIRE3",-8.3%
same,Inhibition vs DMSO,"NDR1, NDR2",-0.8%
same,Inhibition vs DMSO,"MAP3K15, MAP3K5, MAP3K6",-11.5%
same,Inhibition vs DMSO,"CDK11, CDK8",-1.1%
same,Inhibition vs DMSO,"MST1, MST2",41.2%
same,Inhibition vs DMSO,"MAP3K2, MAP3K3",-4.2%
same,Inhibition vs DMSO,[3],-6.6%
same,Inhibition vs DMSO,"KSR1, KSR2",-11.7%
same,Inhibition vs DMSO,"PI4KA, PI4KAP2",11.9%
same,Inhibition vs DMSO,"Wnk1, Wnk2",-30.2%
same,Inhibition vs DMSO,"TAO1, TAO3",9.9%
same,Inhibition vs DMSO,[4],15.9%
same,Inhibition vs DMSO,"MAP2K1, MAP2K2",-17.4%
same,inhibition at 0.1 µM,SGK3,-12.3%
same,inhibition at 0.1 µM,PFTAIRE2,28.4%
